Assay results as given in PubChem BioAssay (NCI).
Several values for one entry are separate records, joined by “and”; a condition that tells them apart may be missing. Identical values can stand only once.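 Five compound concentrations were applied to cells in 96-well plates for 48 hours; endpoints were derived by simple linear interpolation of the resulting dose-response curve. GI50 = concentration required for 50% inhibition of growth. TGI denotes the concentration required for complete inhibition of growth.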

Key:
Assay in all cases: growth of human tumour cells (NCI), 48 h
[1] = tested on: RPMI-8226 leukemia
[2] = tested on: NCI/ADR-RES ovarian
[3] = tested on: K-562 leukemia
[4] = tested on: CCRF-CEM leukemia
[5] = tested on: U251 CNS
[6] = tested on: MCF7 breast
[7] = tested on: EKVX NSCLC
[8] = tested on: DU-145 prostate
[9] = tested on: MDA-MB-231 breast
[10] = tested on: UO-31 renal

Row | Structure (SMILES) | TGI [1] | TGI [2] | TGI [3] | TGI [4] | TGI [5] | TGI [6] | TGI [7] | TGI [8] | TGI [9] | TGI [10] | GI50 [1] | GI50 [2] | GI50 [4] | GI50 [7] | GI50 [8] | GI50 [9] | GI50 [10] | GI50 [3] | GI50 [5] | GI50 [6]
1 | c1ccc(CSC(SCc2ccccc2)c2cccc3ccccc23)cc1 | > 10 µM | > 10 µM | > 10 µM | > 10 µM | > 10 µM | > 10 µM | > 10 µM | > 10 µM | > 10 µM | > 10 µM |  |  |  |  |  |  |  |  |  | 
2 | c1ccc(/C(=N\Nc2nc3ccccc3[nH]2)c2ccccn2)cc1 | 1.07 µM | 0.842 µM | > 100 µM | 0.891 µM | > 28.5 µM | 5.45 µM | 2.96 µM | > 100 µM | 41.2 µM | 6.73 µM |  |  |  |  |  |  |  |  |  | 
3 | N#CC1(CCCI)CCCC1 |  |  | > 100 µM | > 100 µM | 26.3 µM |  | > 100 µM |  |  | > 100 µM |  |  |  |  |  |  |  |  |  | 
4 | O=C(O)c1cc2ccccc2c(N=Nc2ccc(S(=O)(=O)Nc3ccccn3)cc2)c1O | > 100 µM | > 100 µM | > 100 µM | > 100 µM | > 100 µM | > 100 µM | > 100 µM | > 100 µM | > 100 µM | > 100 µM |  |  |  |  |  |  |  |  |  | 
5 | Cc1[nH]c(C(=O)Nc2ccc(C(=O)NCCN)cc2OC(C)C)c(Cl)c1Cl | 4.49 µM | 22.6 µM |  | 5.17 µM |  |  | 3.17 µM | 3.14 µM | 3.27 µM | 2.96 µM | 1.92 µM | 4.32 µM | 2.13 µM | 1.62 µM | 1.69 µM | 1.69 µM | 1.54 µM |  |  | 
6 | Cc1csc2nc(-c3cccc([N+](=O)[O-])c3)c(/C=N/N=C(N)N)n12 |  | 36.3 µM |  |  | 3.4 µM |  | 2.96 µM | 4.28 µM | 2.95 µM | 2.68 µM |  |  |  |  |  |  |  |  |  | 
7 | O=C1Nc2cccc(Cl)c2/C1=C\c1cccnc1 |  | 15.9 µM | 36.5 µM | > 100 µM | 35.2 µM | 18.1 µM | 93.1 µM | 35.9 µM |  | 18.5 µM |  |  |  |  |  |  |  |  |  | 
8 | C[n+]1c2ccccc2c(N=[N+]=[N-])c2ccccc21 | > 10 µM | > 10 µM | > 10 µM | > 10 µM | > 10 µM | > 10 µM | > 10 µM | > 10 µM | > 10 µM |  |  |  |  |  |  |  |  |  |  | 
9 | CCCCCCCCCCCCc1ccc(S(=O)(=O)O)cc1.[Cu+2] | > 100 µM | > 100 µM | > 100 µM | > 100 µM | > 100 µM | > 100 µM | > 100 µM | > 100 µM | > 100 µM | > 100 µM |  |  |  |  |  |  |  |  |  | 
10 | CC[C@@]1(O)CC(OC2CC(N3CCOCC3)C(O)C(C)O2)c2c(O)c3c(c(O)c2[C@H]1O)C(=O)c1cccc(O)c1C3=O (some centres not stated) | 2.15 µM and 5.08 µM | 1.55 µM and 4.61 µM | 6.69 µM and 4.03 µM |  | 1.73 µM and 0.348 µM | 2.58 µM and 13.8 µM | 1.02 µM and 1.63 µM | 0.852 µM | 1.94 µM | 1.57 µM and 3.28 µM | 0.0561 µM | 0.0133 µM | 0.000479 µM and < 0.0102 µM | 0.241 µM |  |  | 0.437 µM and 0.828 µM | 0.0426 µM | 0.0287 µM | 0.0161 µM
11 | O=C(CSCC(=O)N/N=C\c1ccc(F)cc1F)N/N=C\c1ccc(F)cc1F | > 100 µM | > 100 µM |  | > 100 µM | > 100 µM | > 100 µM | > 100 µM | > 100 µM | > 100 µM | > 100 µM |  |  |  |  |  |  |  |  |  | 
12 | C[C@]12CC[C@H]3[C@@H](CC=C4C[C@@H](O)CC[C@@]43C)[C@@H]1C/C(=C\c1ccncc1)[C@@H]2O | 48.9 µM | 67.7 µM | > 100 µM | 50.8 µM | 33.9 µM | 59 µM | 49.1 µM | 49.6 µM | 99.2 µM | > 100 µM |  |  |  |  |  |  |  |  |  | 
13 | N#Cc1c(-c2ccc([N+](=O)[O-])cc2)c2c([nH]c1=O)-c1ccccc1CCC2 | > 100 µM | > 100 µM | > 100 µM |  | > 100 µM | > 100 µM | > 100 µM | > 100 µM | > 100 µM | > 100 µM |  |  |  |  |  |  |  |  |  | 
14 | CC(C)CCN(CCC(C)C)CC(=O)Nc1ccc(S(=O)(=O)c2ccc(NC(=O)CN(CCC(C)C)CCC(C)C)cc2)cc1 |  | > 100 µM |  | 3.87 µM |  | 11 µM | 18.8 µM | 6.16 µM | 6.39 µM | 12.8 µM |  | 2.93 µM | 1.06 µM | 3.27 µM | 2.29 µM | 2.08 µM | 2.07 µM |  |  | 1.31 µM
15 | O=C1OC(c2ccc(O)cc2)(c2ccc(O)cc2)c2ccc(Cl)c3cccc1c23 (tested in a mixture with another compound) | 28.4 µM | 25.7 µM | > 75 µM | 36.2 µM | 25.2 µM | > 75 µM | 4.88 µM | > 75 µM | 26.1 µM | > 75 µM |  |  |  |  |  |  |  |  |  | 
16 | COc1ccccc1C#C/C=C\C#Cc1ccccc1C#N |  | > 100 µM | > 100 µM | > 100 µM | > 100 µM | 28 µM | 58.7 µM | > 100 µM |  | 67.2 µM |  |  |  |  |  |  |  |  |  | 
17 | C[N+]1(C(CO)Cc2c[nH]c3ccccc23)Cc2ccccc2C1 (configuration not stated) | > 100 µM | > 100 µM | > 100 µM | > 100 µM | > 100 µM | > 100 µM | > 100 µM | > 100 µM | > 100 µM | > 100 µM |  |  |  |  |  |  |  |  |  | 
18 | Cc1ncc(C(=O)Nc2ccc(CN3CCN(C)CC3)c(C(F)(F)F)c2)cc1C#Cc1cnc(N)c2ccc(C#N)cc12 |  | 5.05 µM |  |  |  | > 100 µM | 29.6 µM | 2.34 µM |  |  |  | 1.81 µM |  | 0.0827 µM | 0.0157 µM |  |  |  |  | 2.04 µM
